Experiment [1] has as its target T1, biotinylated AVI-tagged EED (76-441) (Homo sapiens, UniProt O75530).
T1 construct: GST (N, cleaved yes); made in house; host or cells: E. coli BL21(DE3), co-expressed with pGro7
Briefly: EED binding SPR assay. The conditions noted are these: 1:1 binding model; read-out: KD, equilibrium dissociation constant as measured by surface plasmon resonance (SPR). How it is done:
Biotinylated AVI-tagged EED was produced using standard molecular biology techniques. A pGEX plasmid with a GST-preScission-cleavage-site-AVI-EED(76-441) sequence was placed into E. coli BL21(DE3) cells and co-expressed with pGro7. The E. coli were grown in shaker flasks in LB with ampicillin at 37° C. at 110 rpm to an OD600=0.7. At this time the temperature was lowered to 15° C. and IPTG was added to 0.3 mM. The cells were allowed to express overnight. Cells were then harvested.
For purification, the E. coli cell pellet was lysed into a buffer of 50 mM Tris pH 8.0, 500 mM NaCl, 5% glycerol and 5 mM DTT. The lysate was loaded onto a GSTrap FF column from GE Healthcare. After washing, the bound protein was eluted with 50 mM Tris pH 8.0, 500 mM NaCl, 5% glycerol, 5 mM DTT and 15 mM GSH. The collected fractions were combined and incubated with PreScission enzyme overnight at 4° C. The cleaved protein was then passed through a GSTrap FF column in a buffer of 50 mM Tris pH 8.0, 500 mM NaCl, 5% glycerol and 5 mM DTT. The cleaved protein was confirmed through mass spectrometry. The AVI-EED(76-441) was then buffer exchanged into 50 mM Bicine pH 8.3, 10 mM ATP, 10 mM magnesium acetate and 50 μM D-Biotin. 3 mg of BirA enzyme was added to the system and incubated at 4° C. for 2 hours to biotinylate the AVI-EED(76-441). The biotinylated-AVI-EED(76-441) was then buffer exchanged into 20 mM Tris pH 8.0 and 400 mM NaCl and passed through a size exclusion column of Superdex 200 16/60 Increase. The purified monomeric biotinylated-AVI-EED(76-441) was confirmed through SDS-PAGE, LC-MS and analytical size exclusion chromatography.
All surface plasmon resonance (SPR) assays were performed using a GE Biacore S200 utilizing GE Biotin CAPture chips. Capturing of CAP reagents was performed with a flow rate of 2 μL/min for 90 seconds. For protein capturing, a solution of 50 μg/mL of biotinylated AVI-tagged EED (76-441) in 10 mM HEPES pH 7.4, 150 mM NaCl, 0.05% Tween 20 and 2% DMSO (Running Buffer) was flowed over the chip with a flow rate of 5 μL/min for a contact time of 30 seconds. Final readings were 2200-2400 RU. For compounds, 7 concentrations were made with 3-dilutions using the Running Buffer for a total of 300 μL of each concentration in a 96-well microplate. During the binding experiments, a flow rate of […] was used for an association time of 90 seconds followed by a disassociation time of 180 seconds. The compartment temperature was set at 10° C. with the chip at 25° C. During regeneration the flow rate was set to 30 μL/min for 30 seconds. All fittings were done using a 1:1 binding model.

Experiment [2] deals with human P-glycoprotein HEK cells (HEK-P-gp). The experiment can be described thus: H3K27me3 immunocytochemistry assay in P-gp expressing HEK293T cells, with or without elacridar. The experiment is classed as cell-based. The conditions noted are these: Homo sapiens, 4 days compound treatment. How it is done:
A plasmid encoding the human ABCB1 gene under the control of a CMV promoter was purchased from Origene (Cat #RC216080). The HEK293T cells were purchased from ATCC (Cat #CRL-3216) and were cultured for expansion in the recommended conditions. The HEK293T cells were transfected with 2 ug of the pCMV-ABCB1 plasmid using Lipofectamine 3000 following recommendations from the manufacturer (ThermoFisher Scientific, Cat #L3000008). After 24 h, cells were dissociated, and 5000 cells were seeded on a 10 cm tissue culture dish. On the next day, fresh media containing 5 nM Vinblastine (Sigma, Cat #V1377) was added, and media containing compound was replenished every 72 h. After surviving cells reached confluency, cells were passaged, and lines were maintained in the presence of 2.5 nM Vinblastine until further characterization.
P-gp expressing HEK293T, HUDEP2, and Human Mobilized Peripheral Blood Primary CD34+ cells were cultured for use in an H3K27me3 immunocytochemistry assay. HUDEP2 and Human Mobilized Peripheral Blood Primary CD34+ cells were cultured for use in an HbF immunocytochemistry assay. P-gp expressing HEK293T cells were maintained and passaged every 3-4 days by plating 300,000 viable cells in a T-25 culture flask containing 6 mLs of 293 Passaging Media comprised of DMEM (ThermoFisher #10566016), 10% fetal bovine serum (ThermoFisher #A3160502), 1% penicillin-streptomycin (ThermoFisher #15140122), and 2.5 nM Vinblastine (Sigma #V1377). To evaluate the inhibitory effect of the compounds of the present disclosure and their brain penetrant properties via P-gp mediated efflux, the H3K27me3 immunocytochemistry assay was conducted in the presence or absence of 250 nM of the P-gp inhibitor, elacridar. Poor brain penetrant compounds were expected to show higher potencies in the presence of Elacridar. However, brain penetrant compounds would show similar potencies irrespective of whether Elacridar is present or not. In these experiments plates without elacridar were seeded with P-gp expressing HEK293T cells at 1000 viable cells per well in a poly-d-lysine coated 384-well plate (Corning Cat #356697) in 45 μL of 293 Assay Media comprised of DMEM (ThermoFisher #10566016), 10% fetal bovine serum (ThermoFisher #A3160502), 1% penicillin-streptomycin (ThermoFisher #15140122). A replicate set of plates were seeded under the same conditions with 45 μL of 293 Assay Media supplemented with 250 nM of Elacridar to inhibit P-gp activity. Compounds were serially diluted at 10× concentration in 293 Media, and 5 μL transferred to their respective wells on both sets of plates for a total volume of 50 μL per well. The compound treated HEK293T cells were allowed to incubate for 4 days at 37° C., 85% relative humidity, and 5% CO2 before proceeding to ICC Fix and Stain protocol.
The Fix and Stain Protocol was the same for HEK293T, HUDEP2, and Primary CD34+ cell assays except the specific primary and secondary antibodies used for detection. Following 4 days of compound treatment, the respective plates were washed once with 25 μL of PBS (ThermoFisher #10010023) and fixed with 25 μL of 4% paraformaldehyde (ThermoFisher #28908) for 10 minutes at room temperature. The plates were then washed three times with 25 μL of PBS. Subsequent to that, the cells were permeabilized and blocked for 1 hour at room temperature in 25 μL of Perm/Block buffer comprised of IX PBS, 1% bovine serum albumin (ThermoFisher #A3294), 10% fetal bovine serum (ThermoFisher #A3160502), 0.3M glycine (Sigma #G7126), and 0.1% tween-20 (Sigma #P7949). This was followed by additional washing (three times) of the plates with 25 μL of 0.1% tween in PBS.
For the H3K27me3 assay, the cells were incubated overnight at 4° C. with 25 μL of H3K27me3 Primary Antibody (Cell Signaling #9733) diluted 1:200 in 0.1% tween-20 in PBS. […]

Where [3] appears, read: HEK293, 96 h, without elacridar, read-out: IC50, inhibitory activity on human P-glycoprotein HEK cells (HEK-P-gp).
Where [4] appears, read: HEK293, with 250 nM elacridar, read-out: IC50, inhibitory activity on human P-glycoprotein HEK cells (HEK-P-gp) pretreated with elacridar.

Each structure is given as a SMILES string. Where two headings read alike, the source gives them in different places.

T1 sequence (O75530 76-441 limits assumed): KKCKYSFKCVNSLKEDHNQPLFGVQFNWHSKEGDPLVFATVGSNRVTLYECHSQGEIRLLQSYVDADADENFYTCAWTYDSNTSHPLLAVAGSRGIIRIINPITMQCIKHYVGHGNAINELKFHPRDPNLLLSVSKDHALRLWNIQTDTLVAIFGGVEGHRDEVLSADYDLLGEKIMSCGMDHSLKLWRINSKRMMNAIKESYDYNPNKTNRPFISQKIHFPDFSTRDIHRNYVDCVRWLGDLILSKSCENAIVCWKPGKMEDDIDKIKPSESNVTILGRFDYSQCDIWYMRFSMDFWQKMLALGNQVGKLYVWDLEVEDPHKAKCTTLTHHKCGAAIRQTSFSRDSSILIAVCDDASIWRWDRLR

A word on the Kd: it is the free concentration of one partner at which half of the binding sites on the other are occupied at equilibrium, for simple one-to-one binding. As usually defined, the IC50 is the concentration that gives 50% inhibition. Turning to `CC(=O)N1CC=C(c2cc3c(n4cnnc24)NCc2c(F)ccc4c2[C@@H](CO4)CO3)CC1` [Compound 193, (S)-1-(4-(12-fluoro-7a,8,13,14-tetrahydro-7H-[1,2,4]triazolo[4′,3′:1,6]pyrido[3,2-b]benzofuro[4,3-fg][1,4]oxazonin-4-yl)-3,6-dihydropyridin-1(2H)-yl)ethan-1-one], the dissociation constant (Kd) in experiment [1] was less than 2.5 nM. Also, the IC50 in experiment [2] (setting [3]) fell in the range of 25 to 50 nM; in experiment [2] (setting [4]), 50 to 100 nM.
With `Fc1ccc2c3c1CNc1c(cc(-c4ccc(N5CCOCC5)nc4)c4nncn14)OC[C@H]3CO2` [Example 116], in experiment [1], the Kd is less than 2.5 nM. For the same compound, the results for the half-maximal inhibitory concentration (IC50) in experiment [2] (setting [3]) and in experiment [2] (setting [4]) were greater than 500 nM and 100 to 500 nM, respectively.
The like results for `OCc1ncccc1-c1cc2c(n3cnnc13)NCc1c(F)ccc3c1C(CO3)CO2` [Compound 195, (S)-(3-(12-fluoro-7a,8,13,14-tetrahydro-7H-[1,2,4]triazolo[4′,3′:1,6]pyrido[3,2-b]benzofuro[4,3-fg][1,4]oxazonin-4-yl)pyridin-2-yl)methanol] were, in that order, less than 2.5 nM, less than 25 nM and 50 to 100 nM.
In the case of `CN1CCN(c2ccc(-c3cc4c(n5cnnc35)NCc3c(F)ccc5c3[C@H](CO5)CO4)cn2)CC1` [Example 117], in experiment [1], the Kd is less than 2.5 nM. The results for the half-inhibitory concentration (IC50) in experiment [2] (setting [3]) and in experiment [2] (setting [4]) were 100 to 500 nM and 50 to 100 nM, respectively.
Take `CN1CCN(c2ncc(-c3cc4c(n5cnnc35)NCc3c(F)ccc5c3[C@H](CO5)CO4)cn2)CC1` [Example 118]: the Kd in experiment [1] was less than 2.5 nM. Moreover, the figures for the half-inhibitory concentration (IC50) in experiment [2] (setting [3]) and in experiment [2] (setting [4]) were 100 to 500 nM and 50 to 100 nM, respectively.
As for `Cc1ncc(-c2cc3c(n4cnnc24)NCc2c(F)ccc4c2[C@@H](CO4)CO3)cc1N` [Compound 179, (S)-5-(12-fluoro-7a,8,13,14-tetrahydro-7H-[1,2,4]triazolo[4′,3′:1,6]pyrido[3,2-b]benzofuro[4,3-fg][1,4]oxazonin-4-yl)-2-methylpyridin-3-amine], the dissociation constant (Kd) in experiment [1] was less than 2.5 nM. The concentration for half-maximal inhibition (IC50) in experiment [2] (setting [3]) was greater than 500 nM; in experiment [2] (setting [4]), 100 to 500 nM.
For `COc1nc(C)ccc1-c1cc2c(n3cnnc13)NCc1c(F)ccc3c1[C@H](CO3)CO2` [Example 105], in experiment [1], the equilibrium dissociation constant (Kd) was in the range of 5 to 10 nM. In addition, the IC50 in experiment [2] (setting [3]) and in experiment [2] (setting [4]) was 100 to 500 nM in each case.
For the compound `Fc1ccc2c3c1CNc1c(cc(-c4ccc(C(F)(F)F)nc4)c4nncn14)OC[C@H]3CO2` [Example 112], the dissociation constant Kd in experiment [1] was 2.5 to 5 nM. In addition, the 50% inhibitory concentration (IC50) in experiment [2] (setting [3]) and in experiment [2] (setting [4]) was 100 to 500 nM in each case.
For `CN(C)c1ncc(-c2cc3c(n4cnnc24)NCc2c(F)ccc4c2[C@H](CO4)CO3)cn1` [Example 108], the Kd in experiment [1] was less than 2.5 nM. Further, the IC50 in experiment [2] (setting [3]) and in experiment [2] (setting [4]) was greater than 500 nM throughout.
As to `Cc1nc(O)ccc1-c1cc2c(n3cnnc13)NCc1c(F)ccc3c1[C@@H](CO3)CO2` [Compound 187, (S)-5-(12-fluoro-7a,8,13,14-tetrahydro-7H-[1,2,4]triazolo[4′,3′:1,6]pyrido[3,2-b]benzofuro[4,3-fg][1,4]oxazonin-4-yl)-6-methylpyridin-2-ol], the Kd in experiment [1] is less than 2.5 nM. The IC50 in experiment [2] (setting [3]) and in experiment [2] (setting [4]) was greater than 500 nM throughout.
In the case of `Cc1nc(C2CC2)ncc1-c1cc2c(n3cnnc13)NCc1c(F)ccc3c1[C@@H](CO3)CO2` [Compound 190, (S)-4-(2-cyclopropyl-4-methylpyrimidin-5-yl)-12-fluoro-7a,8,13,14-tetrahydro-7H-[1,2,4]triazolo[4′,3′:1,6]pyrido[3,2-b]benzofuro[4,3-fg][1,4]oxazonine], in experiment [1], the Kd was less than 2.5 nM. Besides, the IC50 in experiment [2] (setting [3]) and in experiment [2] (setting [4]) was less than 25 nM throughout.
`Cc1cc(Cl)cnc1-c1cc2c(n3cnnc13)NCc1c(F)ccc3c1[C@@H](CO3)CO2` [Compound 166, (S)-4-(5-chloro-3-methylpyridin-2-yl)-12-fluoro-7a,8,13,14-tetrahydro-7H-[1,2,4]triazolo[4′,3′:1,6]pyrido[3,2-b]benzofuro[4,3-fg][1,4]oxazonine]: the Kd in experiment [1] lay within 2.5 to 5 nM. Moreover, the half-inhibitory concentration (IC50) in experiment [2] (setting [3]) and in experiment [2] (setting [4]) was greater than 500 nM throughout.
As for `Fc1ccc2c3c1CNc1c(cc(-c4cnco4)c4nncn14)OC[C@@H]3CO2` [Compound 188, (S)-12-fluoro-4-(oxazol-5-yl)-7a,8,13,14-tetrahydro-7H-[1,2,4]triazolo[4′,3′:1,6]pyrido[3,2-b]benzofuro[4,3-fg][1,4]oxazonine], in experiment [1], the dissociation constant (Kd) was less than 2.5 nM. The IC50 in experiment [2] (setting [3]) and in experiment [2] (setting [4]) was 100 to 500 nM throughout.
`Cc1cc(-c2cc3c(n4cnnc24)NCc2c(F)ccc4c2[C@@H](CO4)CO3)ncn1` [Compound 161, (S)-12-fluoro-4-(6-methylpyrimidin-4-yl)-7a,8,13,14-tetrahydro-7H-[1,2,4]triazolo[4′,3′:1,6]pyrido[3,2-b]benzofuro[4,3-fg][1,4]oxazonine]: the Kd in experiment [1] was in the range of 5 to 10 nM. The half-maximal inhibitory concentration (IC50) in experiment [2] (setting [3]) and in experiment [2] (setting [4]) was greater than 500 nM each time.
